These are literature values, as cited in patent US20050084550A1, “Weight reduction and maintenance method for animals” (International Flora Technologies, priority 2001, published 2005).

In one series the test system is food intake in mice. As to conditions: appetite suppressant.
In the next series the test system is food intake in chickens. Conditions: appetite suppressant.
The subject of a further series is food intake in rats. As to conditions: appetite suppressant.

In the case of `CO[C@H]1[C@@H](OC)C[C@@H](O[C@@H]2O[C@H](CO)[C@@H](O)[C@H](O)[C@H]2O)/C(=C\C#N)[C@@H]1O` [simmondsin], the food intake result with food intake in mice, with food intake in chickens and with food intake in rats was “reduces food intake” each time. Also, under “hexane”, the solubility in hexane result was “not soluble”. Further, the “solubility in jojoba oil” value (jojoba oil) was “not soluble”.
